From patent US20240299385A1 (ReWind Therapeutics NV, priority 2021, published 2024)

target: T1, human GPR17 receptor (Homo sapiens, UniProt Q13304); experiment: Calcium mobilization functional assay (Fluo-8, FLIPR TETRA) in HEK-293 hGPR17 (Gα-q assay); format: cell-based; details: antagonism of MDL29,951 (~EC80) induced Ca2+ signal; cell line (HEK-293 hGPR17 or HEK-293 Suchi5 hGPR17) not given
T1 construct: host or cells: HEK-293
Summary of the method: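 Fluo-8-loaded HEK-293 hGPR17 cells (60 min dye loading, room temperature) were preincubated with compound for twenty minutes, then challenged with agonist MDL29,951 at ~EC80, 500 nM. Intracellular calcium release via Gα-q was recorded as FLIPR fluorescence for a further 2 minutes; compounds tested in duplicate.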

T1 sequence (Q13304 whole entry): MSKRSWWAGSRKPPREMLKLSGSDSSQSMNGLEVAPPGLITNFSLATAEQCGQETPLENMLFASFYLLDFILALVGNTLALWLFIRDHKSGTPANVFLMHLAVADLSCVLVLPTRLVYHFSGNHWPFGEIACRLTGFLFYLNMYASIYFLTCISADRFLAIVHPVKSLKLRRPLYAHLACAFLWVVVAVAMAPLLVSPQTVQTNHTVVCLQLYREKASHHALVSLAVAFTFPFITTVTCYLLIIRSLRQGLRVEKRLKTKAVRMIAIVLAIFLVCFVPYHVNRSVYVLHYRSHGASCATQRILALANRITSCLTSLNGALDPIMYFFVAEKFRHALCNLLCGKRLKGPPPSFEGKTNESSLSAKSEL

IC50 [µM]	Compound
0.5 to 5	O=S(=O)(Nc1cc(F)c(F)cc1F)c1c[nH]c(-c2cccc(F)c2)c1 [Cpd 110, 5-(3-fluorophenyl)-N-(2,4,5-trifluorophenyl)-1H-pyrrole-3-sulfonamide]
0.5 to 5	Cc1ccccc1-c1cc(S(=O)(=O)Nc2cc(F)c(F)cc2F)c[nH]1 [Cpd 111, 5-(o-tolyl)-N-(2,4,5-trifluorophenyl)-1H-pyrrole-3-sulfonamide]
0.5 to 5	O=S(=O)(Nc1ccc2ncccc2c1)c1c[nH]c(-c2ccccc2)c1 [Cpd 112, 5-phenyl-N-(6-quinolyl)-1H-pyrrole-3-sulfonamide]
0.5 to 5	O=S(=O)(Nc1cc(F)c(C(F)(F)F)cc1F)c1c[nH]c(-c2ccc(F)cc2)c1 [Cpd 113, N-[2,5-difluoro-4-(trifluoromethyl)phenyl]-5-(4-fluorophenyl)-1H-pyrrole-3-sulfonamide]
0.5 to 5	O=S(=O)(Nc1cc(F)c(C(F)(F)F)cc1F)c1c[nH]c(-c2cccc(F)c2)c1 [Cpd 114, N-[2,5-difluoro-4-(trifluoromethyl)phenyl]-5-(3-fluorophenyl)-1H-pyrrole-3-sulfonamide]
5 to 50	O=S(=O)(Nc1ccc(OCCF)cc1F)c1c[nH]c(-c2ccccc2F)c1 [Cpd 115, N-[2-fluoro-4-(2-fluoroethoxy)phenyl]-5-(2-fluorophenyl)-1H-pyrrole-3-sulfonamide]
< 0.5	COc1nc(OC(F)F)c(F)cc1NS(=O)(=O)c1c[nH]c(-c2ccccc2F)c1 [Cpd 116, N-[6-(difluoromethoxy)-5-fluoro-2-methoxy-3-pyridyl]-5-(2-fluorophenyl)-1H-pyrrole-3-sulfonamide]
0.5 to 5	COc1ccc(F)c(-c2cc(S(=O)(=O)Nc3cc(F)c(C(F)(F)F)cc3F)c[nH]2)c1 [Cpd 117, N-[2,5-difluoro-4-(trifluoromethyl)phenyl]-5-(2-fluoro-5-methoxy-phenyl)-1H-pyrrole-3-sulfonamide]
0.5 to 5	Cc1ccccc1-c1cc(S(=O)(=O)Nc2cc(F)c(C(F)(F)F)cc2F)c[nH]1 [Cpd 118, N-[2,5-difluoro-4-(trifluoromethyl)phenyl]-5-(o-tolyl)-1H-pyrrole-3-sulfonamide]
< 0.5	O=S(=O)(Nc1cc(F)c(C(F)(F)F)cc1F)c1c[nH]c(-c2c(F)cccc2F)c1 [Cpd 119, 5-(2,6-difluorophenyl)-N-[2,5-difluoro-4-(trifluoromethyl)phenyl]-1H-pyrrole-3-sulfonamide]
5 to 50	O=S(=O)(Nc1ccc(F)cc1F)c1c[nH]c(-c2cccc(F)c2)c1 [Cpd 120, N-(2,4-difluorophenyl)-5-(3-fluorophenyl)-1H-pyrrole-3-sulfonamide]
5 to 50	O=S(=O)(Nc1ccc(F)cc1F)c1c[nH]c(-c2ccccn2)c1 [Cpd 122, N-(2,4-difluorophenyl)-5-(2-pyridyl)-1H-pyrrole-3-sulfonamide]
0.5 to 5	O=S(=O)(Nc1ccc(C(F)(F)F)cc1F)c1c[nH]c(-c2ccccn2)c1 [Cpd 123, N-[2-fluoro-4-(trifluoromethyl)phenyl]-5-(2-pyridyl)-1H-pyrrole-3-sulfonamide]
< 0.5	O=S(=O)(Nc1cc(F)c(C(F)(F)F)cc1F)c1c[nH]c(-c2ccccn2)c1 [Cpd 124, N-[2,5-difluoro-4-(trifluoromethyl)phenyl]-5-(2-pyridyl)-1H-pyrrole-3-sulfonamide]
5 to 50	O=S(=O)(Nc1cccc(F)c1)c1c[nH]c(-c2ccccn2)c1 [Cpd 125, N-(3-fluorophenyl)-5-(2-pyridyl)-1H-pyrrole-3-sulfonamide]
0.5 to 5	Cc1nc(Cl)ccc1NS(=O)(=O)c1c[nH]c(-c2ccccc2)c1 [Cpd 126, N-(6-chloro-2-methyl-3-pyridyl)-5-phenyl-1H-pyrrole-3-sulfonamide]
5 to 50	Cc1ccc(NS(=O)(=O)c2c[nH]c(-c3ccccc3)c2)c(Cl)n1 [Cpd 127, N-(2-chloro-6-methyl-3-pyridyl)-5-phenyl-1H-pyrrole-3-sulfonamide]
5 to 50	COc1nc(C)ccc1NS(=O)(=O)c1c[nH]c(-c2ccccc2)c1 [Cpd 128, N-(2-methoxy-6-methyl-3-pyridyl)-5-phenyl-1H-pyrrole-3-sulfonamide]
0.5 to 5	Cc1ccnc(C)c1NS(=O)(=O)c1c[nH]c(-c2ccccc2)c1 [Cpd 129, N-(2,4-dimethyl-3-pyridyl)-5-phenyl-1H-pyrrole-3-sulfonamide]
5 to 50	COCCOc1ccc(NS(=O)(=O)c2c[nH]c(-c3ccccc3F)c2)c(F)c1 [Cpd 130, N-[2-fluoro-4-(2-methoxyethoxy)phenyl]-5-(2-fluorophenyl)-1H-pyrrole-3-sulfonamide]
0.5 to 5	O=S(=O)(Nc1cc(F)c(F)cc1F)c1c[nH]c(-c2c(F)cccc2F)c1 [Cpd 131, 5-(2,6-difluorophenyl)-N-(2,4,5-trifluorophenyl)-1H-pyrrole-3-sulfonamide]
0.5 to 5	O=S(=O)(Nc1cc(F)c(C(F)(F)F)cc1F)c1c[nH]c(C2CCCC2)c1 [Cpd 132, 5-cyclopentyl-N-[2,5-difluoro-4-(trifluoromethyl)phenyl]-1H-pyrrole-3-sulfonamide]

IC50 [µM]	Compound
5 to 50	O=S(=O)(Nc1ncc(F)cc1F)c1c[nH]c(-c2ccccc2F)c1 [Cpd 133, N-(3,5-difluoro-2-pyridyl)-5-(2-fluorophenyl)-1H-pyrrole-3-sulfonamide]
0.5 to 5	COc1cc(Cl)cnc1NS(=O)(=O)c1c[nH]c(-c2ccccc2)c1 [Cpd 134, N-(5-chloro-3-methoxy-2-pyridyl)-5-phenyl-1H-pyrrole-3-sulfonamide]
0.5 to 5	Cc1nc(C(F)(F)F)ccc1NS(=O)(=O)c1c[nH]c(-c2ccccc2)c1 [Cpd 135, N-[2-methyl-6-(trifluoromethyl)-3-pyridyl]-5-phenyl-1H-pyrrole-3-sulfonamide]
0.5 to 5	Cc1cnc(NS(=O)(=O)c2c[nH]c(-c3ccccc3)c2)c(F)c1 [Cpd 136, N-(3-fluoro-5-methyl-2-pyridyl)-5-phenyl-1H-pyrrole-3-sulfonamide]
0.5 to 5	O=S(=O)(Nc1cc(F)c(F)cc1F)c1c[nH]c(-c2ccccc2)c1 [Cpd 137, 5-phenyl-N-(2,4,5-trifluorophenyl)-1H-pyrrole-3-sulfonamide]
5 to 50	O=S(=O)(Nc1ccc(C(F)(F)F)cn1)c1c[nH]c(-c2ccccc2)c1 [Cpd 138, 5-phenyl-N-[5-(trifluoromethyl)-2-pyridyl]-1H-pyrrole-3-sulfonamide]
0.5 to 5	O=S(=O)(Nc1cc(C(F)(F)F)ccn1)c1c[nH]c(-c2ccccc2)c1 [Cpd 139, 5-phenyl-N-[4-(trifluoromethyl)-2-pyridyl]-1H-pyrrole-3-sulfonamide]
0.5 to 5	O=S(=O)(Nc1ncc(C(F)(F)F)cc1F)c1c[nH]c(-c2ccccc2)c1 [Cpd 140, N-[3-fluoro-5-(trifluoromethyl)-2-pyridyl]-5-phenyl-1H-pyrrole-3-sulfonamide]
0.5 to 5	O=S(=O)(Nc1cccc2c1OC(F)(F)O2)c1c[nH]c(-c2ccccc2)c1 [Cpd 141, N-(2,2-difluoro-1,3-benzodioxol-4-yl)-5-phenyl-1H-pyrrole-3-sulfonamide]
0.5 to 5	O=S(=O)(Nc1cnc(Cl)cc1F)c1c[nH]c(-c2ccccc2F)c1 [Cpd 142, N-(6-chloro-4-fluoro-3-pyridyl)-5-(2-fluorophenyl)-1H-pyrrole-3-sulfonamide]
0.5 to 5	O=S(=O)(Nc1ccc(OC(F)(F)F)cc1F)c1c[nH]c(-c2ccccc2)c1 [Cpd 143, N-[2-fluoro-4-(trifluoromethoxy)phenyl]-5-phenyl-1H-pyrrole-3-sulfonamide]
5 to 50	COc1cc(C(F)(F)F)ccc1NS(=O)(=O)c1c[nH]c(-c2ccccc2)c1 [Cpd 144, N-[2-methoxy-4-(trifluoromethyl)phenyl]-5-phenyl-1H-pyrrole-3-sulfonamide]
0.5 to 5	O=S(=O)(Nc1cc(F)c(Cl)cc1F)c1c[nH]c(-c2ccccc2)c1 [Cpd 145, N-(4-chloro-2,5-difluoro-phenyl)-5-phenyl-1H-pyrrole-3-sulfonamide]
5 to 50	O=S(=O)(Nc1cc(Cl)ncc1F)c1c[nH]c(-c2ccccc2)c1 [Cpd 146, N-(2-chloro-5-fluoro-4-pyridyl)-5-phenyl-1H-pyrrole-3-sulfonamide]
0.5 to 5	COc1nc(C(F)(F)F)ccc1NS(=O)(=O)c1c[nH]c(-c2ccccc2)c1 [Cpd 147, N-[2-methoxy-6-(trifluoromethyl)-3-pyridyl]-5-phenyl-1H-pyrrole-3-sulfonamide]
< 0.5	O=S(=O)(Nc1cc(F)c(C(F)(F)F)cc1F)c1c[nH]c(-c2ncccc2F)c1 [Cpd 148, N-(2,5-difluoro-4-(trifluoromethyl)phenyl)-5-(3-fluoropyridin-2-yl)-1H-pyrrole-3-sulfonamide]
0.5 to 5	O=S(=O)(Nc1cccc2c1OCO2)c1c[nH]c(-c2ccccn2)c1 [Cpd 149, N-(1,3-benzodioxol-4-yl)-5-(2-pyridyl)-1H-pyrrole-3-sulfonamide]
0.5 to 5	O=S(=O)(Nc1cc(F)c(C(F)(F)F)cc1F)c1c[nH]c(-c2ncccn2)c1 [Cpd 150, N-[2,5-difluoro-4-(trifluoromethyl)phenyl]-5-pyrimidin-2-yl-1H-pyrrole-3-sulfonamide]
5 to 50	O=S(=O)(Nc1ccc(F)cc1F)c1c[nH]cc1Cc1ccccc1 [Cpd 151, 4-benzyl-N-(2,4-difluorophenyl)-1H-pyrrole-3-sulfonamide]
5 to 50	O=S(=O)(Nc1ccc(C(F)(F)F)nc1)c1c[nH]cc1Cc1ccccc1 [Cpd 152, 4-benzyl-N-[6-(trifluoromethyl)-3-pyridyl]-1H-pyrrole-3-sulfonamide]
5 to 50	O=S(=O)(Nc1ccc(Cl)cc1F)c1c[nH]cc1Cc1ccccc1 [Cpd 153, 4-benzyl-N-(4-chloro-2-fluoro-phenyl)-1H-pyrrole-3-sulfonamide]
0.5 to 5	COc1cc(C(F)(F)F)ccc1NS(=O)(=O)c1c[nH]c(-c2ccccn2)c1 [Cpd 154, N-[2-methoxy-4-(trifluoromethyl)phenyl]-5-(2-pyridyl)-1H-pyrrole-3-sulfonamide]
